Data: PMC7083851, “Extended pharmacodynamic responses observed upon PROTAC-mediated degradation of RIPK2” (Communications Biology, 2020)
Values joined by “and” are separate entries in the source; they are usually repeats but may differ in a detail not shown here. Equal values may be shown once.

What was measured:
cIAP2 = target: T1, cIAP2 (Homo sapiens, UniProt Q13489); experiment: cIAP2 levels in human PBMCs, 24 h, capillary immunoassay; type: cell-based; conditions: up to 1uM
T1 construct: endogenous in cells; host or cells: primary human PBMCs
T1 sequence (Q13489 whole entry): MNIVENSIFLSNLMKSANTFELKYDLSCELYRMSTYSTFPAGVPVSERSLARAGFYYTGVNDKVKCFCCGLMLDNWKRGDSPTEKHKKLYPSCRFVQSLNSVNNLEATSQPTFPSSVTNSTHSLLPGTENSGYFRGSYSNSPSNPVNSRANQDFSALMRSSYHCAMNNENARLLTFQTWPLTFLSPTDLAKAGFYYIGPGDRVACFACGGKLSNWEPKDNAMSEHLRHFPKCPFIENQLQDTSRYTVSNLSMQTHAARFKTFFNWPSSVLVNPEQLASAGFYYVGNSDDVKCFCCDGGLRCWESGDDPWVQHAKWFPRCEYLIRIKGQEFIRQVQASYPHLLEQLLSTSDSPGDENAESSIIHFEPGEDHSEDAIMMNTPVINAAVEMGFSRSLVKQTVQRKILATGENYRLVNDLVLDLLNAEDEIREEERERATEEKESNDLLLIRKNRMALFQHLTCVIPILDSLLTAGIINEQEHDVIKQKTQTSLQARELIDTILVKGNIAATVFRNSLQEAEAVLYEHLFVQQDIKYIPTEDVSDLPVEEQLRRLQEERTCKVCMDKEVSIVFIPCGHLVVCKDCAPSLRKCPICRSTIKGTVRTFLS
Description: Where the assessment of cytokines was performed, L18-MDP was added to the cell culture media (1 μg/ml) or to the rat blood samples (100 ng/ml) and samples were incubated for up to 4 h. For human blood, 250 ng/ml MDP (Invivogen) was added following compound treatment and the samples were further incubated for 5 h. Samples were them spun down at 1000 g and the cell culture supernatant, plasma or serum were collected for cytokines assessment, while cell pellets were used for RIPK2 and/or cIAP1, cIAP2, and XIAP levels analysis via immunoblotting.
Simple Western immunoassay: Cell lysates were mixed with 5× concentrated master mix (Protein Simple) and denatured at 95 °C on a heat block for 5 min together with the provided ladder (Protein Simple). Antibodies were diluted in the provided buffer as following: anti-RIPK2 (1:10 or 1:50), anti-cIAP1(1:10), anti-cIAP2 (1:10), anti-XIAP (1:10), mouse anti-β-actin (Abcam - 1:1000), rabbit anti-β-actin (Abcam - 1:50) and anti-vinculin (1:100). […] All samples were analyzed using the associated Compass software 3.1.7. […]
Cell viability was assessed by using Cell Titer
Kit (Promega) according to the manufacturer’s instructions. Samples were analysed using […]

RIPK2 = target: T2, RIPK2 (Rattus norvegicus, UniProt G3V783); experiment: RIPK2 levels in colon of dosed rats (Western blot); type: in vivo; conditions: for RIPK2 level in colon (fig 5f): vehicle control 0.0136-0.0240
T2 construct: from tissue; host or cells: terminal colon samples of dosed rats
T2 sequence (G3V783 1-539): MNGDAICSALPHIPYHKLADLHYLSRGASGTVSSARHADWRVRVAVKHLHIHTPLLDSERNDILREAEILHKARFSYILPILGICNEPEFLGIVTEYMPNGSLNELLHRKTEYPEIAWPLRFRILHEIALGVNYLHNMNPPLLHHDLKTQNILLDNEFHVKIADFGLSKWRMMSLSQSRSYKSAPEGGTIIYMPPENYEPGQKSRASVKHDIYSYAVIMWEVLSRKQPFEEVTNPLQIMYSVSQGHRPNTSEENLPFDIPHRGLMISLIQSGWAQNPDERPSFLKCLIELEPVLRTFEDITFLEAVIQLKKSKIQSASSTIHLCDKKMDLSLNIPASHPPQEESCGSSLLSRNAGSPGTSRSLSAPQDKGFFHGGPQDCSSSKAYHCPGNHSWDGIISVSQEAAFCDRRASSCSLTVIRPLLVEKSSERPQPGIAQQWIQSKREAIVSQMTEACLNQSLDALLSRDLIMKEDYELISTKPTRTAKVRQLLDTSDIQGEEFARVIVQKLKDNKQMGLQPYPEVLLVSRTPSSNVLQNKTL
Description: Rat PK/PD studies: On arrival, all rats were housed in a plastic solid bottom cage in groups of 2–3 with access to food and water ad libitum and under a 12 h light–dark cycle. Male CD or Wistar Han rats (7–9 weeks old, Charles River UK Ltd.) were randomly allocated to treatment groups upon arrival. Female CD rats (7–8 weeks old on arrival, Charles River Ltd.) were placed into groups using a randomization schedule based on body weight prior to the study start. All animals were acclimatized for a minimum of one week prior to the experiment commencing.
Ex vivo stimulation of rat blood with L18-MDP for PD: PPD blood samples taken prior to PROTAC administration or at fixed timepoints post PROTAC administration through the course of the study, were treated ex vivo with 100 ng/mL L18-MDP (Invivogen) or vehicle (0.1% DMSO) and incubated for 4 h. Following centrifugation, plasma was collected for cytokines analysis as detailed in cytokines assay section. Additionally, RIPK2 levels were determined in PBMCs isolated from blood and where collected, in sampled colon tissue as described in the text.
For in vivo studies, RIPK2:tubulin ratios and cytokine levels from each individual experiment were analysed either using a One-way ANOVA with Dunnet’s post-test or a two way ANOVA using GraphPad Prism 5.0.4 to determine statistical significance with 95% confidence levels.

[1] = High-throughput precipitation solubility, chemiluminescent nitrogen-specific detection (CLND); type: physicochemical; conditions: high-throughput

SMILES | change in cIAP2 protein levels, in words (cIAP2) | RIPK2 level in colon (fig 5f) (RIPK2; 0.05 mg/kg, individual rats 1-4) | RIPK2 level in colon (fig 5f) (RIPK2; 0.5 mg/kg, individual rats 5-8) | RIPK2 in terminal colon samples, in words (RIPK2; rat, 0.05 and 0.5 mg/kg QD SC, Western blot) | solubility [1]
CN[C@@H](C)C(=O)N[C@H](C(=O)N1C[C@@H](NC(=O)c2cnc(N3CCN(CCCOc4cc5ncnc(Nc6n[nH]c(C)c6C)c5cc4S(=O)(=O)C(C)(C)C)CC3)cn2)C[C@H]1C(=O)Nc1c(F)cccc1F)C(C)(C)C [PROTAC 6] | no change in protein levels | 0.0091 and 0.0088 and 0.0071 and 0.0105 | 0.0034 and 0.0025 and 0.0038 and 0.0043 | significant degradation of RIPK2 | 
CN[C@@H](C)C(=O)N[C@H](C(=O)N1CCC[C@H]1c1nc(C(=O)c2ccc(F)cc2)cs1)C1CCN(C(=O)c2cnc(N3CCN(CCOc4cc5ncnc(Nc6n[nH]c(C)c6C)c5cc4S(=O)(=O)C(C)(C)C)CC3)nc2)CC1 [PROTAC 4] |  |  |  |  | > 311 µM
